Data reported in patent US20260132165A1, “MODIFIED NUCLEOSIDE ANALOGUE AND USE THEREOF, AND NUCLEOSIDE ANALOGUE-CONTAINING DOUBLE-STRANDED OLIGONUCLEOTIDE AND USE THEREOF” (RIGERNA THERAPEUTICS (BEIJING) CO., LTD., priority 2023, published 2026).

Experiments:
target gene SOD1 [1] = test: Test Example 12: inhibitory activity of lipid conjugated siRNA sequence on SOD1 in mouse eyes (intravitreal administration); type: in vivo, C57BL/6J mice; conditions: D14
Method: (§1) RNA extraction: the above tissue samples were taken out from the RNAlater, and smashed for 60 s in Tissuelyser type II full-automatic tissue homogenizer, and total RNAs of various tissue samples were extracted using the full-automatic nucleic acid extraction instrument and the nucleic acid extraction kit from Zhejiang Hanwei Science and Technology Co. Ltd. according to methods described in instructions.
(§2) Reverse transcription reaction: 1 μg of the extracted total RNAs of the tissue samples were taken, and configured into 20 μL of reverse transcription system according to a method described in kit instructions by using a reverse transcription kit (Reverse Transcription System, A3500) from Promega Corporation and selecting Oligo (dT)15 reverse transcription primers, and the reverse transcription reaction was completed. After the reaction was ended, 80 μL of RNase-Free water was added into the reverse transcription system to provide cDNA solution for Real-time PCR detection.
(§3) Real-time PCR detection: 20 μL of Real-time PCR reaction system per PCR detection well was configured according to a method described in kit instructions using SYBR™ Select Master Mix (Catalog number: 4472908) reagent from ABI company. Each detection system contained 5 μL of cDNA template obtained from the above reverse transcription reaction, 10 μL of SYBR™ Select Master Mix, 0.5 μL of 10 μM upstream primers, 0.5 μL of 10 μM downstream primers, and 4 μL of RNase-Free H2O. The configured reaction system was subjected to Real-time PCR amplification on ABI StepOnePlus PCR instrument by a three-step method, wherein an amplification procedure was pre-denaturation at 95° C. for 10 min, then denaturation at 95° C. for 30 s, annealing at 60° C. for 30 s, and extension at 72° C. for 30 s; and processes of denaturation, annealing, and extension were repeated for 40 cycles. Gene expression differences were calculated by the ΔΔCt method after completion of the procedure.
(§4) In the real-time fluorescence quantitative PCR method, relative quantitative calculation of remaining expression level and inhibition rate of gene mRNA of interest in various test groups was performed by the ΔΔCt method, and the calculation method is as follows:
The present test example evaluated, by an evaluation method for inhibitory activity on a target gene in mice, the inhibitory activity of siRNA sequence RZ899091 with the sense strand with the NM074 conjugation at Position 4 and siRNA reference sequence RX899121 without vector conjugation on the target gene SOD1 of interest in mice.
6-8 Week-old C57BL/6J mice were randomly grouped by body weight, 5 in each group and 3 groups in total. Mice in each group were administered with the above siRNA conjugate by intravitreal administration to right eyes of the mice, with an administration dose of 7.5 μg per mouse, and an administration volume of 2 μL. PBS control group was administered with the same volume of siRNA conjugate-free PBS solution. The day of administration was recorded as D0, and the mice were sacrificed at D14 after administration. Administration-side ocular retina, choroid, cornea, sclera and other tissues were respectively taken and stored in the RNAlater. RNA extraction, reverse transcription, and real-time fluorescence quantitative detection were performed on various tissues according to the above method, and gene expression differences were calculated by the above ΔΔCt method.

target gene SOD1 [2] = test: Test Example 11: inhibitory activity at different administration doses on SOD1 in mouse adipose and heart tissues; type: in vivo, C57BL/6j mice; conditions: D14; for 0.5 mg/kg % Mean value of inhibition rate: tail vein injection 0.5 mg/kg; for 2 mg/kg % Mean value of inhibition rate: tail vein injection 2 mg/kg; for 5 mg/kg % Mean value of inhibition rate: tail vein injection 5 mg/kg; for dose dependency of inhibitory activity: 0.5, 2, 5 mg/kg tail vein
Method: as §1, §2, §3, §4
The present test example evaluated, by an evaluation method for inhibitory activity on a target gene in mice, the inhibitory activity of siRNA sequence RZ899090 with the sense strand with the NM073 conjugation at Position 4 at different administration doses on the target gene SOD1 of interest in mice.
6-8 Week-old C57BL/6j mice were randomly grouped by body weight, 5 per group, 4 groups in total. Mice were administered with the above siRNA conjugate by tail vein injection, wherein mice in one group were administered with the above siRNA conjugate at an administration dose of 5 mg/kg, mice in one group were administered with the above siRNA conjugate at an administration dose of 2 mg/kg, and one group was administered with the above siRNA conjugate at an administration dose of 0.5 mg/kg, all administration volumes being 150 μL. The remaining group acted as PBS control group and was administered with the same volume of siRNA conjugate-free PBS solution. The day of administration was recorded as D0, and the mice were sacrificed on D14 after administration. Paragonadal fat and heart tissues were respectively taken and stored in the RNAlater. RNA extraction, reverse transcription, and real-time fluorescence quantitative detection were performed on various tissues according to the above method, and gene expression differences were calculated by the above ΔΔCt method.

target gene SOD1 [3] = test: Test Example 10: inhibitory activity on SOD1 in mouse adipose and heart tissues by different routes of administration; type: in vivo, C57BL/6j mice; conditions: D14; for inhibitory activity by different routes of administration: subcutaneous vs tail vein injection, same dose 5 mg/kg; for Subcutaneous % Mean value of inhibition rate: subcutaneous administration 5 mg/kg; for Intravenous % Mean value of inhibition rate: tail vein injection 5 mg/kg
Method: as §1, §2, §3, §4
The present test example evaluated, by an evaluation method for inhibitory activity on a target gene in mice, the inhibitory activity of siRNA sequence RZ899090 with the sense strand with the NM073 conjugation at Position 4 on the target gene SOD1 of interest in mice.
6-8 Week-old C57BL/6j mice were randomly grouped by body weight, 5 per group, 4 groups in total. Mice in one of the groups were dosed with the above siRNA conjugate by tail vein injection, with an administration dose of 5 mg/kg, and an administration volume of 150 μL. One group was dosed with the above siRNA conjugate by subcutaneous administration, with an administration dose of 5 mg/kg, and an administration volume of 5 ml/kg. The other two groups were PBS control groups, and were respectively administered with the same volume of siRNA conjugate-free PBS solution by tail vein injection and subcutaneous administration. The day of administration was recorded as D0, and the mice were sacrificed on D14 after administration. Paragonadal fat and heart tissues were respectively taken and stored in the RNAlater. RNA extraction, reverse transcription, and real-time fluorescence quantitative detection were performed on various tissues according to the above method, and gene expression differences were calculated by the above ΔΔCt method.

[4] = mouse adipose tissues (paragonadal fat)

Substance | Choroid % Mean value of inhibition rate (target gene SOD1 [1]; choroid, intravitreal, right eye, 7.5 μg per mouse) [%] | Cornea and sclera % Mean value of inhibition rate (target gene SOD1 [1]; cornea and sclera, intravitreal, right eye, 7.5 μg per mouse) [%] | Kidney % Mean value of inhibition rate (target gene SOD1 [1]; kidney, intravitreal, right eye, 7.5 μg per mouse) [%] | Liver % Mean value of inhibition rate (target gene SOD1 [1]; liver, intravitreal, right eye, 7.5 μg per mouse) [%] | inhibitory activity compared with the reference sequence RX899121 without vector (target gene SOD1 [1]; mouse retina and choroid, intravitreal 7.5 μg per mouse) | Retina % Mean value of inhibition rate (target gene SOD1 [1]; retina, intravitreal, right eye, 7.5 μg per mouse) [%] | 0.5 mg/kg % Mean value of inhibition rate (target gene SOD1 [2]; [4]) [%] | 2 mg/kg % Mean value of inhibition rate (target gene SOD1 [2]; [4]) [%] | 5 mg/kg % Mean value of inhibition rate (target gene SOD1 [2]; [4]) [%] | dose dependency of inhibitory activity (target gene SOD1 [2]; mouse adipose tissues) | dose dependency of inhibitory activity (target gene SOD1 [2]; mouse heart tissues) | 0.5 mg/kg % Mean value of inhibition rate (target gene SOD1 [2]; mouse heart tissues) [%] | 2 mg/kg % Mean value of inhibition rate (target gene SOD1 [2]; mouse heart tissues) [%] | 5 mg/kg % Mean value of inhibition rate (target gene SOD1 [2]; mouse heart tissues) [%] | inhibitory activity by different routes of administration (target gene SOD1 [3]; adipose tissues) | inhibitory activity by different routes of administration (target gene SOD1 [3]; heart) | Subcutaneous % Mean value of inhibition rate (target gene SOD1 [3]; [4]) [%] | Intravenous % Mean value of inhibition rate (target gene SOD1 [3]; [4]) [%] | Subcutaneous % Mean value of inhibition rate (target gene SOD1 [3]; mouse heart tissues) [%] | Intravenous % Mean value of inhibition rate (target gene SOD1 [3]; mouse heart tissues) [%]
RZ899091: siRNA sequence with the sense strand with the NM074 (C20) conjugation at Position 4; SEQ ID NO: 16 / 23 (sense UUUNAAUCCUCACUCUAAA; antisense UUUAGAGUGAGGAUUAAAAUG; NM074 (C20) conjugate at sense position 4; modified_base 1..2 OTHER; 2'-methoxy and 5'-thiophosphate modified nucleotides; modified_base 3 OTHER; 2'-methoxy modified nucleotide; modified_base 4 OTHER; n is the synthetic nucleotide analog NM074 as described in the disclosure.; modified_base 5..6 OTHER; 2'-methoxy modified nucleotides; modified_base 7..10 OTHER; 2'-fluoro modified nucleotides; modified_base 11..19 OTHER; 2'-methoxy modified ; modified_base 1 OTHER; 2'-methoxy and 5'-thiovinylphosphonate modified nucleotide; modified_base 2 OTHER; 2'-fluoro and 5'-thiophosphate modified …) | 33.54 | −2.05 | 6.51 | −2.05 | superior inhibitory activity | 54.98 |  |  |  |  |  |  |  |  |  |  |  |  |  | 
RZ899090: siRNA sequence with the sense strand with the NM073 (C18) conjugation at Position 4; SEQ ID NO: 15 / 23 (sense UUUNAAUCCUCACUCUAAA; antisense UUUAGAGUGAGGAUUAAAAUG; NM073 (C18) conjugate at sense position 4; modified_base 1..2 OTHER; 2'-methoxy and 5'-thiophosphate modified nucleotides; modified_base 3 OTHER; 2'-methoxy modified nucleotide; modified_base 4 OTHER; n is the nucleotide analog NM073 as described in the disclosure.; modified_base 5..6 OTHER; 2'-methoxy modified nucleotides; modified_base 7..10 OTHER; 2'-fluoro modified nucleotides; modified_base 11..19 OTHER; modified_base 1 OTHER; 2'-methoxy and 5'-thiovinylphosphonate modified nucleotide; modified_base 2 OTHER; 2'-fluoro and 5'-thiophosphate modified nucleotide; modified_base 3..5 OTHER; …) |  |  |  |  |  |  | 45.65 | 70.90 | 83.09 | distinct dose dependency | distinct dose dependency | 30.45 | 62.38 | 79.04 | comparable inhibitory activity in the fat | comparable inhibitory activity in heart | 77.05 | 80.33 | 73.71 | 76.57
